ChEMBL document CHEMBL1138371, “Discovery of low nanomolar non-hydroxamate inhibitors of tumor necrosis factor-alpha converting enzyme (TACE)” (Bioorg Med Chem Lett, 2007)

Experiments:
[1] = target: Disintegrin and metalloproteinase domain-containing protein 17 (Sus scrofa, UniProt O77636); experiment: Inhibition of porcine TACE
[2] = target: 72 kDa type IV collagenase (Homo sapiens, UniProt P08253); experiment: Inhibition of MMP2
Stromelysin-1 = Stromelysin-1 (Homo sapiens, UniProt P08254); experiment: Inhibition of MMP3
Sequence of Stromelysin-1 (P08254 whole entry): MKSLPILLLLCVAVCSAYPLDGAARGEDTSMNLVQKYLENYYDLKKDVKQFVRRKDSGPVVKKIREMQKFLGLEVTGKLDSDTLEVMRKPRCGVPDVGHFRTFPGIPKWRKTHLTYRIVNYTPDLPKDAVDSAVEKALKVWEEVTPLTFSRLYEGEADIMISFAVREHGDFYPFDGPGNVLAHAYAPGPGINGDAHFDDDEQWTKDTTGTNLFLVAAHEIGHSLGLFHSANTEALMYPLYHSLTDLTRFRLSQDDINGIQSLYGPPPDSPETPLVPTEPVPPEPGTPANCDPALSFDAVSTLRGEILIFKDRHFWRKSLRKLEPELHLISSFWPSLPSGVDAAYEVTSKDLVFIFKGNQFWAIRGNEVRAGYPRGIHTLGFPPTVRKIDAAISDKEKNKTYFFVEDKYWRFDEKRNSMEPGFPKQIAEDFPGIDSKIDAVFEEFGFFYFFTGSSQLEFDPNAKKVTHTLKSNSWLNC

Matrilysin = target: T1, Matrilysin (Homo sapiens, UniProt P09237); experiment: Inhibition of MMP7
T1 sequence (P09237 whole entry): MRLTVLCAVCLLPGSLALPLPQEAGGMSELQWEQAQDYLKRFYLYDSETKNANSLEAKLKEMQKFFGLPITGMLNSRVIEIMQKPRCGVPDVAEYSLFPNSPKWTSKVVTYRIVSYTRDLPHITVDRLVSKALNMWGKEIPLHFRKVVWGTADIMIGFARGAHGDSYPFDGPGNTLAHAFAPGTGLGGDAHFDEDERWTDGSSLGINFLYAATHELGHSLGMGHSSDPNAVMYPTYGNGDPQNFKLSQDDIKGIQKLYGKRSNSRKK

[3] = target: Macrophage metalloelastase (Homo sapiens, UniProt P39900); experiment: Inhibition of MMP12
Sequence of Macrophage metalloelastase (P39900 whole entry): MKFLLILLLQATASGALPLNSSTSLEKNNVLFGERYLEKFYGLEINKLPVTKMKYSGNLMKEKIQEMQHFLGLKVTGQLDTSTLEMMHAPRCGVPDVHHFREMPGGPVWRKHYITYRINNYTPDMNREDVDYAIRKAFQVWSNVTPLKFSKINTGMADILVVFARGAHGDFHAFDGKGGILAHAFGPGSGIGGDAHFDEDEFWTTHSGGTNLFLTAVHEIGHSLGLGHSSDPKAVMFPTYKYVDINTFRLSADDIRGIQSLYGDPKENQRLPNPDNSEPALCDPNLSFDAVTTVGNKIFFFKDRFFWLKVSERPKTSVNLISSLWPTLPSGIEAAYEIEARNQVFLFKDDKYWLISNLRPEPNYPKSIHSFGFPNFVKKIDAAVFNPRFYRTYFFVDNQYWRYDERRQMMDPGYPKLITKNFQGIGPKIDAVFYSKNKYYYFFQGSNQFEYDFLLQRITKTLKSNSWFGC

Collagenase 3 = Collagenase 3 (Homo sapiens, UniProt P45452); experiment: Inhibition of MMP13
Homo sapiens = organism: Homo sapiens; experiment: Inhibition of aggrecanase at 1 uM
Blood = experiment: Inhibition of LPS-stimulated TNFalpha production in human whole blood; format: functional, tissue-based

Sequence of Disintegrin and metalloproteinase domain-containing protein 17 (O77636 whole entry, the tested form may be a part): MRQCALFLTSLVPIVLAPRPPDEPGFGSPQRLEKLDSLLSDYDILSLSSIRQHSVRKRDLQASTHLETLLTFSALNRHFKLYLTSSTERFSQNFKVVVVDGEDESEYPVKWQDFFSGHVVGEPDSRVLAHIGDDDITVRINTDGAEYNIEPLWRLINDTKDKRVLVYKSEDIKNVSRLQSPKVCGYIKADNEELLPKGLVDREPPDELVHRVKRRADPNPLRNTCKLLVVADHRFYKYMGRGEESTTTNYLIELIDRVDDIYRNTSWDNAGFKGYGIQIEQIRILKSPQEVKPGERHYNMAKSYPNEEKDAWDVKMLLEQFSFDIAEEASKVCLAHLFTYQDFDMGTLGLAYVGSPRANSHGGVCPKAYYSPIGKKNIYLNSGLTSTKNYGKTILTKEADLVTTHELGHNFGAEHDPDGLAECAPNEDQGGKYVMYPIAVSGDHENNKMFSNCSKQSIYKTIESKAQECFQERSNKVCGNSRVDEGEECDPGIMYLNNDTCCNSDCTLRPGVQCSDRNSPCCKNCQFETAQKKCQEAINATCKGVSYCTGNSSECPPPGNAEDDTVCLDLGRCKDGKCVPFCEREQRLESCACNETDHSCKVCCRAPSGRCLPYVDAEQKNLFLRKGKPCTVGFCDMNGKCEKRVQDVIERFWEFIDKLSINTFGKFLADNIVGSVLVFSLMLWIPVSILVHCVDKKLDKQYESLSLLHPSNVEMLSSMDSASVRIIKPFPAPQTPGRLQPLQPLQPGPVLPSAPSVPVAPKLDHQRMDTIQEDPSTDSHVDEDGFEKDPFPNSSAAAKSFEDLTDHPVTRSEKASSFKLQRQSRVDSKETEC
Sequence of 72 kDa type IV collagenase (P08253 whole entry): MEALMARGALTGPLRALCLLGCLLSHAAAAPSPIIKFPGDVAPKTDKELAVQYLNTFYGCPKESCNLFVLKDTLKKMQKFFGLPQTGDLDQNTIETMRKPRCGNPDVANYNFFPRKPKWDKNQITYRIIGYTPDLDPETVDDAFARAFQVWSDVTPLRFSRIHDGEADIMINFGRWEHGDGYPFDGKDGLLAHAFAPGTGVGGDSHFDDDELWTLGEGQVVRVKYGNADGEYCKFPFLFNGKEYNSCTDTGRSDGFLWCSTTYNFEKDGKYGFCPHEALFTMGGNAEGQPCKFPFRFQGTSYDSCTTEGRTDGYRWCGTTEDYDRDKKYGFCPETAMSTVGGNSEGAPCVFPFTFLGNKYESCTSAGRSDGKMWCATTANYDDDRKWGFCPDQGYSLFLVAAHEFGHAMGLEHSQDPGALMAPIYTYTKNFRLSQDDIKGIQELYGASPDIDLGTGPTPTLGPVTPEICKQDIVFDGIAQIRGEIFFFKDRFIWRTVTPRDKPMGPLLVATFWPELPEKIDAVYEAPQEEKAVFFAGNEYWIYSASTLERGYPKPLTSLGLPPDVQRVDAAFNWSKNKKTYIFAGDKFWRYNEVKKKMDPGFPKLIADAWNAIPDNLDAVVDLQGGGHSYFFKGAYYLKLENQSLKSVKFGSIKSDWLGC

Compound | IC50 [1] [µM] | Ki [2] [µM] | Ki (Stromelysin-1) [µM] | Ki (Matrilysin) [µM] | Ki [3] [µM] | Ki (Collagenase 3) [µM] | inhibition (Homo sapiens) [%] | IC50 (Blood) [µM]
Cc1cc(COc2ccc(C(=O)NC3CN(S(C)(=O)=O)CC34C(=O)NC(=O)NC4=O)cc2)c2ccccc2n1 (stereo not drawn) | 0.036 | > 3.33 | > 4.5 | > 6.37 | 1.29 | 3.72 | 26 | 12.6
Cc1cc(COc2ccc(C3(C)C(=O)NC(=O)NC3=O)cc2)c2ccccc2n1 | 1.03 | – | – | – | – | – | – | –
Cc1cc(COc2ccc(C(=O)NCC3(N4CCN(Cc5ccccc5)CC4)C(=O)NC(=O)NC3=O)cc2)c2ccccc2n1 | 0.014 | 2.7 | > 4.5 | > 6.37 | 4.1 | – | 22 | > 50
Cc1cc(COc2ccc(C(=O)NCC3(C4CCN(C(C)C)CC4)C(=O)NC(=O)NC3=O)cc2)c2ccccc2n1 | 0.052 | > 3.33 | > 4.5 | > 6.37 | > 6.02 | – | 21 | > 50
Cc1cc(COc2ccc(C(=O)NC(c3ccncc3)C3(C)C(=O)NC(=O)NC3=O)cc2)c2ccccc2n1 (stereo not drawn) | 2.36 | – | – | – | – | – | – | –
Cc1cc(COc2ccc(CCC3(C)C(=O)NC(=O)NC3=O)cc2)c2ccccc2n1 | 49 | – | – | – | – | – | – | –
Cc1cc(COc2ccc(NC(=O)CC3(C)C(=O)NC(=O)NC3=O)cc2)c2ccccc2n1 | 12 | – | – | – | – | – | – | –
Cc1cc(COc2ccc(C(=O)NCC3(N4CCN(S(C)(=O)=O)CC4)C(=O)NC(=O)NC3=O)cc2)c2ccccc2n1 | 0.002 | 2.17 | > 4.5 | > 6.37 | 1.02 | – | 11 | > 50
Cc1cc(COc2ccc(C(=O)NCC3(Cc4ccccc4)C(=O)NC(=O)NC3=O)cc2)c2ccccc2n1 | 0.018 | 0.37 | 3.69 | > 6.37 | 0.39 | – | 34 | > 50
Cc1cc(COc2ccc(C(=O)CCC3(C)C(=O)NC(=O)NC3=O)cc2)c2ccccc2n1 | 0.8 | – | – | – | – | – | – | –
CC(=O)N1CCN(C2(CNC(=O)c3ccc(OCc4cc(C)nc5ccccc45)cc3)C(=O)NC(=O)NC2=O)CC1 | 0.005 | > 3.33 | > 4.5 | > 6.37 | > 6.02 | – | 21 | > 50
Cc1cc(COc2ccc(CCCC3(C)C(=O)NC(=O)NC3=O)cc2)c2ccccc2n1 | > 100 | – | – | – | – | – | – | –
Cc1cc(COc2ccc(C(=O)NCC3(N4CCN(C(=O)c5cccnc5)CC4)C(=O)NC(=O)NC3=O)cc2)c2ccccc2n1 | 0.01 | > 3.33 | > 4.5 | > 6.37 | 4.64 | – | 36 | 43
Cc1cc(COc2ccc(C(=O)NC3(C)C(=O)NC(=O)NC3=O)cc2)c2ccccc2n1 | > 100 | – | – | – | – | – | – | –
C#CCN1CCN(C2(CNC(=O)c3ccc(OCc4cc(C)nc5ccccc45)cc3)C(=O)NC(=O)NC2=O)CC1 | 0.062 | > 3.33 | > 4.5 | > 6.37 | > 6.02 | – | 26 | > 50
Cc1cc(COc2ccc(C(=O)NCC3(N4CCN(C(=O)C(C)(C)C)CC4)C(=O)NC(=O)NC3=O)cc2)c2ccccc2n1 | 0.029 | 0.02 | > 4.5 | > 6.37 | 0.05 | – | 7 | 38
Cc1cc(COc2ccc(C(=O)NCC3(N4CCN(C)CC4)C(=O)NC(=O)NC3=O)cc2)c2ccccc2n1 | 0.058 | > 3.33 | > 4.5 | > 6.37 | > 6.02 | – | 21 | > 50
Cc1cc(COc2ccc(C(=O)NCC3(C4CCN(C(=O)OC(C)(C)C)CC4)C(=O)NC(=O)NC3=O)cc2)c2ccccc2n1 | 0.047 | > 3.33 | > 4.5 | > 6.37 | > 6.02 | – | 0 | 35
Cc1cc(COc2ccc(C(=O)NC3CN(C(=O)OC(C)(C)C)CC34C(=O)NC(=O)NC4=O)cc2)c2ccccc2n1 (stereo not drawn) | 0.128 | > 3.33 | > 4.5 | > 6.37 | 1.03 | > 5.21 | 44 | 14

Compound | IC50 [1] [µM] | Ki [2] [µM] | Ki (Stromelysin-1) [µM] | Ki (Matrilysin) [µM] | Ki [3] [µM] | Ki (Collagenase 3) [µM] | inhibition (Homo sapiens) [%] | IC50 (Blood) [µM]
Cc1cc(COc2ccc(C(=O)NCC3(C4CCN(C5CCOCC5)CC4)C(=O)NC(=O)NC3=O)cc2)c2ccccc2n1 | 0.031 | > 3.33 | > 4.5 | > 6.37 | > 6.02 | – | 5 | > 50
Cc1cc(COc2ccc(C(=O)NCC3(NC(=O)OC(C)(C)C)C(=O)NC(=O)NC3=O)cc2)c2ccccc2n1 | 0.013 | > 3.33 | > 4.5 | > 6.37 | > 6.02 | – | 16 | > 50
Cc1cc(COc2ccc(CC(=O)NCC3(C)C(=O)NC(=O)NC3=O)cc2)c2ccccc2n1 | > 100 | – | – | – | – | – | – | –
Cc1cc(COc2ccc(C(=O)NC3CN(C(=O)c4cccnc4)CC34C(=O)NC(=O)NC4=O)cc2)c2ccccc2n1 (stereo not drawn) | 0.029 | > 3.33 | > 4.5 | > 6.37 | 0.13 | 1.31 | 17 | 18.4
Cc1cc(COc2ccc(C(=O)NC3CCCC34C(=O)NC(=O)NC4=O)cc2)c2ccccc2n1 (stereo not drawn) | 0.024 | > 3.33 | – | – | – | – | 0 | > 50
Cc1cc(COc2ccc(C(=O)NCC3(C4CCN(C)CC4)C(=O)NC(=O)NC3=O)cc2)c2ccccc2n1 | 0.057 | > 3.33 | > 4.5 | > 6.37 | > 6.02 | – | 15 | > 50
Cc1cc(COc2ccc(/C=C/CC3(C)C(=O)NC(=O)NC3=O)cc2)c2ccccc2n1 | 11 | – | – | – | – | – | – | –
Cc1cc(COc2ccc(C(=O)NC3CCCCC34C(=O)NC(=O)NC4=O)cc2)c2ccccc2n1 (stereo not drawn) | 0.138 | 0.11 | – | – | – | – | 29 | –
CC(=O)N1CC(NC(=O)c2ccc(OCc3cc(C)nc4ccccc34)cc2)C2(C1)C(=O)NC(=O)NC2=O (stereo not drawn) | 0.055 | > 3.33 | > 4.5 | > 6.37 | 0.58 | 3.95 | 44 | 14
Cc1cc(COc2ccc(C(=O)NCC3(C4CCN(C(=O)C(C)(C)C)CC4)C(=O)NC(=O)NC3=O)cc2)c2ccccc2n1 | 0.013 | > 3.33 | > 4.5 | > 6.37 | > 6.02 | – | 10 | 39
Cc1cc(COc2ccc(C(=O)NCC3(C4CCNCC4)C(=O)NC(=O)NC3=O)cc2)c2ccccc2n1 | 0.055 | > 3.33 | > 4.5 | > 6.37 | > 6.02 | – | 1 | 48.7
Cc1cc(COc2ccc(C(=O)NCC3(N4CCN(C(C)C)CC4)C(=O)NC(=O)NC3=O)cc2)c2ccccc2n1 | 0.007 | > 3.33 | > 4.5 | > 6.37 | > 6.02 | – | 20 | > 50
Cc1cc(COc2ccc(C(=O)NCC3(C(C)C)C(=O)NC(=O)NC3=O)cc2)c2ccccc2n1 | 0.019 | 0.93 | > 4.5 | > 6.37 | > 6.02 | – | 11 | > 50
CCC1(CNC(=O)c2ccc(OCc3cc(C)nc4ccccc34)cc2)C(=O)NC(=O)NC1=O | 0.016 | 0.2 | > 4.5 | > 6.37 | 0.21 | – | 18 | > 50
Cc1cc(COc2ccc(CC3(C)C(=O)NC(=O)NC3=O)cc2)c2ccccc2n1 | 2.2 | – | – | – | – | – | – | –
Cc1cc(COc2ccc(C(=O)NCC3(C4CCN(S(C)(=O)=O)CC4)C(=O)NC(=O)NC3=O)cc2)c2ccccc2n1 | 0.029 | > 3.33 | > 4.5 | > 6.37 | > 6.02 | – | 36 | > 50
Cc1cc(COc2ccc(OC3(C)C(=O)NC(=O)NC3=O)cc2)c2ccccc2n1 | 1.3 | – | – | – | – | – | – | –
Cc1cc(COc2ccc(C(=O)NC3CN(C(=O)C(C)(C)C)CC34C(=O)NC(=O)NC4=O)cc2)c2ccccc2n1 (stereo not drawn) | 0.111 | > 3.33 | > 4.5 | > 6.37 | > 6.02 | – | 53 | > 50
Cc1cc(COc2ccc(C(=O)NC3COCC34C(=O)NC(=O)NC4=O)cc2)c2ccccc2n1 (stereo not drawn) | 0.044 | > 3.33 | > 4.5 | > 6.37 | > 4.04 | 3.53 | 12 | 50
